Article PMC6412019, “Discovery of NV-5138, the first selective Brain mTORC1 activator” (Scientific Reports, 2019)
Where “and” joins values, the source holds several entries; their conditions need not be identical. Identical values can stand only once.

Assays:
[1] = cited from earlier work
Sestrin2 = target: T1, Sestrin2 (Homo sapiens, UniProt P58004); assay: Isothermal titration calorimetry (ITC) on Sestrin2; assay type: binding; design: Full-length, codon-optimized human Sestrin2 was cloned into a pMAL6H -C5XT bacterial expression vector; His6-MBP (TEV-cleavable) (N, cleaved yes); made in house; host or cells: Escherichia coli LOBSTR (DE3); details: for Kd: estimated, Sestrin2 pre-exchanged with methionine
T1 sequence (P58004 1-480): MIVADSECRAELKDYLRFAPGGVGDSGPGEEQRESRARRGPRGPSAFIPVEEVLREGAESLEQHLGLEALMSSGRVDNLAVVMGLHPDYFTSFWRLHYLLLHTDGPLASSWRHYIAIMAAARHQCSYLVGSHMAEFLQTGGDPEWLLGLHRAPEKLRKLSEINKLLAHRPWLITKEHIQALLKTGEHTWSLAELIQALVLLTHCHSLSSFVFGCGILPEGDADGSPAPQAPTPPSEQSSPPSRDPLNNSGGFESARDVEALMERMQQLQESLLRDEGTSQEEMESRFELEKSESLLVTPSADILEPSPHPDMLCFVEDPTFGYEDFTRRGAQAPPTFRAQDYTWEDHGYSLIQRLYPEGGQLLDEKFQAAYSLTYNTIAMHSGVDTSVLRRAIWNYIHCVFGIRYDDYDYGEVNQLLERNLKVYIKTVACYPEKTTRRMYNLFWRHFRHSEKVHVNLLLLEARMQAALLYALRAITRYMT
Description: Details of NV-5138 synthesis and protein preparation for ITC can be found in Supplementary Information.
For this exchange procedure ion exchange chromatography was used using the following buffers:
Buffer-A: HEPES 20mM pH 7.4, βME 5mM, Buffer-B: HEPES 20mM pH 7.4, βME 5mM, Methionine 5mM, Buffer-C: HEPES 20mM pH 7.4, βME 5mM, NaCl 1M. Sestrin2 (6 mg) was diluted to 5ml with buffer-A, and loaded on a MonoQ HR 5/50 column equilibrated in buffer-A. The column was washed with 2-3 column volume (CV) of buffer-A followed by 130 ml of buffer-B. The protein was then eluted in steps of 300 mM, 500 mM, and 1 M NaCl in buffer-C. The protein eluted in the 300 mM NaCl fractions and was concentrated to 7.6 mg/ml.

[2] = Pharmacokinetic analysis in rats; assay type: in vivo, rat
Description: To determine oral bioavailability, male SD rats were dosed I.V at 1 mg/kg and PO at 5 mg/kg with NV-5138 in 0.5% MC/0. 1% Tween80 (n = 3 per time point per group). Rats were fasted overnight for PO group and were given free access to food and water for IV group. After dosing, tail-vein blood was collected at the indicated time points into K2EDTA tubes and centrifuged at 2,000 g for 5 min to collect plasma. To measure levels of NV-5138 in the brain and plasma, rats were dosed PO at 160 mg/kg (n = 5), sacrificed 1 h after dosing via decapitation and trunk blood and one hemisphere of the brain was collected. Plasma was combined with acetonitrile containing pregabalin as an internal standard and centrifuged, brain and heart samples were homogenized directly into acetonitrile. Levels of NV-5138 were quantified via LC-MS/MS. WinNonlin V 6.2 statistics software (Pharsight Corporation, California, USA) was used to generate pharmacokinetics parameters using non-compartmental model.

[3] = target: T2, Sestrin2/GATOR2 interaction (Homo sapiens, UniProt P58004); assay: Cell-free Sesn2/WDR24 (GATOR2) interaction assay on immunoprecipitates; assay type: biochemical; details: added to immunoprecipitated complexes from amino acid-starved cells for 10 min
T2 construct: expressed in transfected cells; host or cells: HEK-293T stably expressing Flag-WDR24; Sestrin2 and the other GATOR2 subunits endogenous
T2 sequence (P58004 1-480): T1 sequence (P58004 1-480)
Description: (§1) Expression of flag-WDR24 allows for immunoprecipitation of the Sestrin2/GATOR2 complex from amino acid-starved cells with an anti-flag antibody. […] Finally, to determine whether Sestrins and the GATOR pathway are required for NV-5138 activity, HEK-293T cells null for all three Sestrin isoforms or the GATOR1 component Nprl3 were obtained.
(§2) Cell lysates were prepared as previously described. Lysates were cleared by centrifugation at 13,200 rpm at 4 °C for 8 min. For anti-FLAG IPs, the FLAG-M2 affinity gel was added to approximately 2 mg of lysates and incubated with rotation for 3 h at 4 °C. Following IP, the beads were washed one time with Triton wash buffer containing 500 mM NaCl. […] After compound incubation, IPs were collected by centrifugation. Immunoprecipitated proteins were denatured and, resolved by SDS-PAGE. Membranes were imaged using the LI-COR imaging system. Reagents and antibodies used are listed in Supplementary Information.

[4] = system: NMDA receptors expressed in Xenopus laevis oocytes; assay: Two electrode voltage-clamp electrophysiology of NMDA receptors in oocytes; assay type: cell-based; details: 300 µM final concentration; data not shown
Description: While mTORC1 activation by NV-5138 appears dependent upon an intact Sestrins/GATOR2 pathway and not upon protein incorporation or transamination by BCAT, NV-5138 was tested for off-target activity in the Eurofins/Cerep panel of over 100 potential targets. The selectivity panel included AMPA, kainate and NMDA receptor isoforms (Supplementary Table 2a–c). […] As observed in the Eurofins/Cerep panel, there was no effect of NV-5138 at 300 µM final concentration (data not shown).

[5] = target: T2, Sestrin2/GATOR2 interaction; assay: Sestrin2/GATOR2 interaction in intact flag-WDR24 HEK-293T cells; assay type: cell-based; details: leucine-starved 50 min, compound 10 min
Description: as §1
All cell lines were cultured in DMEM supplemented with 10% FBS and maintained at 37 °C and 5% CO2. HEK-293T cells stably expressing Flag-WDR24 was generated as previously described. […] Details of reagent used for cell culture can be found in Supplementary Information.
as §2

SMILES: CC(C)C[C@H](N)C(=O)O [Leucine, L-leucine, reference compound]
- cerebrospinal fluid (CSF) levels as fraction of plasma concentrations [1]: 5–10%
- molar stoichiometry (ITC) (Sestrin2): 1
- Kd (Sestrin2): 1600 nM and 1550 nM

SMILES: CC(C)(C[C@H](N)C(=O)O)C(F)F [NV-5138, (S)-2-amino-5,5-difluoro-4,4-dimethylpentanoic acid]
- bioavailability ([2]; male, SD, rat, plasma, oral, 5 mg/kg, male SD rats, IV 1 mg/kg and PO 5 mg/kg): 100%
- half-life ([2]; male, SD, rat, plasma, other: intravenous and oral, rats, intravenous and oral dosing, read-out: elimination half-life in plasma (converted)): ~180 min
- brain versus plasma exposure ([2]; rats, 160 mg/kg PO, 160 mg/kg): brain and plasma concentrations of NV-5138 are equal
- disruption of Sestrin2/GATOR2 interaction, cell-free [3]: rapidly disrupts the Sestrin2/GATOR2 interaction in a dose-dependent manner
- functional inhibition of maximally-activated NMDA receptors [4]: no effect
- Kd (Sestrin2): 1500 nM and 1490 nM
- disruption of GATOR2-bound Sestrin2 in intact cells [5]: resulted in disruption of GATOR2-bound Sestrin2
